Assay results published in PubChem BioAssay AID248 (DTP/NCI, 2004).
“And” between values parts separate entries of the source, which are not always exact repeats. Equal entries are not always repeated. Inconclusive results and toxic doses are left out. Cut-off read from the data, not from the text of the source: active = T/C of 150% or more; inactive = T/C below 125%.

System: L1210 leukemia ip in BDF1 mice, survival T/C
Test: NCI In Vivo Anticancer Drug Screen. Data for tumor model L1210 Leukemia (intraperitoneal) in B6D2F1 (BDF1) mice
Details: endpoint: mean survival time, higher = longer survival
How it was run: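 Antitumor effect is assessed in tumor-bearing animals. Survival in the compound arm is compared with a vehicle-dosed control arm and expressed as their quotient.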

[1] = dose: 100.0 mg/kg/injection, schedule: Q01DX009 (ip), vehicle: saline with Tween-80
[2] = dose: 100.0 mg/kg/injection, schedule: Q04DX003 (ip), vehicle: saline with Tween-80
[3] = dose: 200.0 mg/kg/injection, schedule: Q04DX003 (ip), vehicle: saline with Tween-80
[4] = dose: 400.0 mg/kg/injection, schedule: Q04DX003 (ip), vehicle: saline with Tween-80
[5] = dose: 100.0 mg/kg/injection, schedule: Q04DX002 (ip), vehicle: saline with Tween-80
[6] = dose: 200.0 mg/kg/injection, schedule: Q04DX002 (ip), vehicle: saline with Tween-80
[7] = dose: 100.0 mg/kg/injection, schedule: Q04DX003 (ip), vehicle: saline
[8] = dose: 200.0 mg/kg/injection, schedule: Q04DX003 (ip), vehicle: saline
[9] = dose: 400.0 mg/kg/injection, schedule: Q04DX003 (ip), vehicle: saline
[10] = dose: 25.0 mg/kg/injection, schedule: Q01DX009 (ip), vehicle: Klucel (hydroxypropylcellulose) (HPC)
[11] = dose: 100.0 mg/kg/injection, schedule: Q01DX009 (ip), vehicle: Klucel (hydroxypropylcellulose) (HPC)
[12] = dose: 200.0 mg/kg/injection, schedule: Q01DX009 (ip), vehicle: Klucel (hydroxypropylcellulose) (HPC)
[13] = dose: 400.0 mg/kg/injection, schedule: Q01DX009 (ip), vehicle: Klucel (hydroxypropylcellulose) (HPC)
[14] = dose: 100.0 mg/kg/injection, schedule: Q01DX001 (ip), vehicle: Klucel (hydroxypropylcellulose) (HPC)
[15] = dose: 100.0 mg/kg/injection, schedule: Q04DX003 (ip), vehicle: Klucel (hydroxypropylcellulose) (HPC)
[16] = dose: 200.0 mg/kg/injection, schedule: Q01DX001 (ip), vehicle: Klucel (hydroxypropylcellulose) (HPC)
[17] = dose: 200.0 mg/kg/injection, schedule: Q04DX003 (ip), vehicle: Klucel (hydroxypropylcellulose) (HPC)
[18] = dose: 400.0 mg/kg/injection, schedule: Q01DX001 (ip), vehicle: Klucel (hydroxypropylcellulose) (HPC)
[19] = dose: 400.0 mg/kg/injection, schedule: Q04DX003 (ip), vehicle: Klucel (hydroxypropylcellulose) (HPC)
[20] = dose: 100.0 mg/kg/injection, schedule: Q01DX001 (ip), vehicle: saline
[21] = dose: 200.0 mg/kg/injection, schedule: Q01DX001 (ip), vehicle: saline
[22] = dose: 400.0 mg/kg/injection, schedule: Q01DX001 (ip), vehicle: saline

Measured: T/C

O=C(O)CCCCCCCCCCN1C(=O)CCC1=O
inactive: dose: 100.0 mg/kg/injection, schedule: Q04DX003 (ip), vehicle: carboxymethylcellulose (CMC) 98 % of control | dose: 200.0 mg/kg/injection, schedule: Q04DX003 (ip), vehicle: carboxymethylcellulose (CMC) 92 % of control | dose: 400.0 mg/kg/injection, schedule: Q04DX003 (ip), vehicle: carboxymethylcellulose (CMC) 104 % of control

Cc1cccc(C)c1NC(=O)C(C)C
inactive: [1] 94 % of control | [2] 98 % of control | dose: 200.0 mg/kg/injection, schedule: Q01DX009 (ip), vehicle: saline with Tween-80 95 % of control | [3] 98 % of control | dose: 400.0 mg/kg/injection, schedule: Q01DX009 (ip), vehicle: saline with Tween-80 90 % of control | [4] 96 % of control

C=C(C)C1C/C(=N\O)C(C)/C(=N/O)C1 (stereo unspecified)
inactive: [5] 100 % of control | [6] 96 % of control | dose: 400.0 mg/kg/injection, schedule: Q04DX002 (ip), vehicle: saline with Tween-80 93 % of control

O=C1CCc2cc3c(cc21)OCO3
inactive: [7] 103 % of control | [8] 96 % of control | [9] 102 % of control

CC[P+](CC)(CC)c1ccccc1
inactive: dose: 6.0 mg/kg/injection, schedule: Q04DX003 (ip), vehicle: saline 103 % of control | dose: 6.25 mg/kg/injection, schedule: Q01DX009 (ip), vehicle: saline 100 % of control | dose: 12.0 mg/kg/injection, schedule: Q04DX003 (ip), vehicle: saline 107 % of control | dose: 12.5 mg/kg/injection, schedule: Q01DX009 (ip), vehicle: saline 100 % of control | [10] 100 % of control | dose: 25.0 mg/kg/injection, schedule: Q01DX009 (ip), vehicle: saline 110 % of control | dose: 25.0 mg/kg/injection, schedule: Q04DX003 (ip), vehicle: saline 96 % of control and 92 % of control

O=C(O)CN1C(=O)C2C3CCC(C3)C2C1=O (stereo unspecified)
inactive: [2] 97 % of control | [3] 97 % of control | [4] 94 % of control

O=C(Nc1ccccc1F)C(Br)C(Br)c1ccccc1 (stereo unspecified)
inactive: [11] 92 % of control | [12] 100 % of control | [13] 96 % of control

O=C(CI)NCc1cn(C2CC(O)C(CO)O2)c(=O)[nH]c1=O (stereo unspecified)
inactive: dose: 25.0 mg/kg/injection, schedule: Q01DX005 (ip), vehicle: water 105 % of control | dose: 50.0 mg/kg/injection, schedule: Q01DX005 (ip), vehicle: water 116 % of control | dose: 100.0 mg/kg/injection, schedule: Q01DX005 (ip), vehicle: water 116 % of control

Clc1ccc2c(c1)/C(=C/c1ccccc1Cl)c1cc(Cl)cc(Cl)c1-2
inactive: [14] 90 % of control | [11] 100 % of control | [15] 91 % of control | [16] 88 % of control | [12] 88 % of control | [17] 87 % of control | [18] 91 % of control | [13] 102 % of control | [19] 87 % of control

CC1=NN(c2ccccc2)C(=O)C1(Br)Br
inactive: [2] 96 % of control

CCOc1ccc(NC(C)=O)cc1CN(CCCl)CCBr
inactive: [14] 97 % of control | [16] 111 % of control | [18] 100 % of control

O/N=C1/CCCCc2ccccc21
inactive: [20] 105 % of control | [21] 110 % of control | [22] 96 % of control

O=S(=O)(O)SCCN1CCCCCCC1
inactive: dose: 100.0 mg/kg/injection, schedule: Q01DX009 (ip), vehicle: saline 95 % of control

O=C(O)c1cccn1-c1cccc2c(-n3cccc3C(=O)O)cccc12
inactive: dose: 50.0 mg/kg/injection, schedule: Q04DX002 (ip), vehicle: saline + alcohol 99 % of control | dose: 100.0 mg/kg/injection, schedule: Q04DX002 (ip), vehicle: saline + alcohol 89 % of control | dose: 200.0 mg/kg/injection, schedule: Q04DX002 (ip), vehicle: saline + alcohol 96 % of control

CCCOC(=O)NNC(=O)OCCC
inactive: dose: 75.0 mg/kg/injection, schedule: Q01DX009 (ip), vehicle: Klucel (hydroxypropylcellulose) (HPC) 93 % of control

NC(=S)NN=C1CCSCC1
inactive: dose: 8.4 mg/kg/injection, schedule: Q01DX Z (ip), vehicle: methylcellulose (MC) 96 % of control | dose: 14.0 mg/kg/injection, schedule: Q01DX Z (ip), vehicle: methylcellulose (MC) 92 % of control | dose: 23.0 mg/kg/injection, schedule: Q01DX Z (ip), vehicle: methylcellulose (MC) 98 % of control | dose: 39.0 mg/kg/injection, schedule: Q01DX Z (ip), vehicle: methylcellulose (MC) 98 % of control

c1ccc(SCc2ccncc2)nc1
inactive: [20] 100 % of control | [21] 92 % of control | [22] 88 % of control

Oc1ccccc1C1CC2CCC1C2 (stereo unspecified)
inactive: dose: 50.0 mg/kg/injection, schedule: Q04DX002 (ip), vehicle: saline with Tween-80 106 % of control | [1] 107 % of control | [5] 103 % of control | [6] 100 % of control

CCCCOc1ccc(S(=O)(=O)c2ccc(OCCCC)c([N+](=O)[O-])c2)cc1[N+](=O)[O-]
inactive: dose: 75.0 mg/kg/injection, schedule: Q04DX002 (ip), vehicle: gum acacia 97 % of control | dose: 150.0 mg/kg/injection, schedule: Q04DX002 (ip), vehicle: gum acacia 97 % of control | dose: 300.0 mg/kg/injection, schedule: Q04DX002 (ip), vehicle: gum acacia 97 % of control

CC(C)CC(NS(=O)(=O)Cc1ccccc1)C(=O)NNc1ccccc1 (stereo unspecified)
inactive: dose: 100.0 mg/kg/injection, schedule: Q01DX001 (ip), vehicle: other 97 % of control | dose: 100.0 mg/kg/injection, schedule: Q04DX003 (ip), vehicle: other 95 % of control | dose: 200.0 mg/kg/injection, schedule: Q01DX001 (ip), vehicle: other 94 % of control | dose: 200.0 mg/kg/injection, schedule: Q04DX003 (ip), vehicle: other 91 % of control | dose: 400.0 mg/kg/injection, schedule: Q01DX001 (ip), vehicle: other 92 % of control

Cc1ccc2c(Br)cc(Br)c(O)c2n1
inactive: [10] 94 % of control | dose: 50.0 mg/kg/injection, schedule: Q01DX009 (ip), vehicle: Klucel (hydroxypropylcellulose) (HPC) 96 % of control | [11] 97 % of control and 89 % of control | [15] 97 % of control | [17] 112 % of control | [19] 98 % of control

O=C(O)C1CCCN1CCc1ccccc1 (stereo unspecified)
inactive: [7] 107 % of control | [8] 105 % of control | [9] 97 % of control

COc1cc2cccccc-2cc1=O
inactive: dose: 50.0 mg/kg/injection, schedule: Q01DX009 (ip), vehicle: other 104 % of control | dose: 100.0 mg/kg/injection, schedule: Q01DX009 (ip), vehicle: other 89 % of control | [15] 103 % of control | dose: 200.0 mg/kg/injection, schedule: Q01DX009 (ip), vehicle: other 101 % of control | [17] 97 % of control | [19] 103 % of control

Cc1ccc(C(=O)CCC(=O)O)cc1
inactive: [2] 102 % of control | [3] 98 % of control | [4] 94 % of control

COc1ccc2c(C(=O)O)c(C(=O)c3ccccc3)ccc2c1OC
inactive: dose: 100.0 mg/kg/injection, schedule: Q01DX001 (ip), vehicle: gum acacia 98 % of control | dose: 200.0 mg/kg/injection, schedule: Q01DX001 (ip), vehicle: gum acacia 98 % of control | dose: 400.0 mg/kg/injection, schedule: Q01DX001 (ip), vehicle: gum acacia 94 % of control

NC(=S)N/N=C/c1ccc(C2CCNCC2)cc1
inactive: dose: 15.0 mg/kg/injection, schedule: Q01DX Z (ip), vehicle: methylcellulose (MC) 102 % of control | dose: 30.0 mg/kg/injection, schedule: Q01DX Z (ip), vehicle: methylcellulose (MC) 92 % of control | dose: 60.0 mg/kg/injection, schedule: Q01DX Z (ip), vehicle: methylcellulose (MC) 104 % of control | dose: 120.0 mg/kg/injection, schedule: Q01DX Z (ip), vehicle: methylcellulose (MC) 104 % of control
